Data published in patent publication US12702673B2, “Sulfated C19 steroid hormones to treat and/or prevent proteotoxicity in protein-aggregation diseases” (U[…] DE OLAVIDE, priority 2020, dated 2026).
“Also recorded” adds a separate entry of the source. Where a name gives a salt, the structure may show the parent alone.

Tests used:
[1] = tested on: GMC101 strain expressing human β-amyloid in muscle; test: Alzheimer's disease model: paralysis of GMC101 strain; assay type: in vivo, Caenorhabditis elegans; conditions: for paralysis with age: 20° C., monitored during adulthood
Description: Data display from six independent biological replicates, n≥215.
FIG. 4b illustrates that paralysis of GMC101 Alzheimer's disease model is ameliorate with TS and ES.
Assays performed with normal NGM plates. Data display from three independent biological replicates, n>130.
FIG. 15 illustrates that treatment with Androsterone Sulfate (AS) ameliorates the symptoms of Alzheimer's model in Caenorhabditis elegans. The strain GMC101 expresses the human b-amyloid in muscle cells and generate paralysis with age. […] Data from 5 biological replicates. Paralysis was monitored during adulthood. […] More than 200 nematodes were analyzed. Nematodes were synchronized and assayed at 20° C.

[2] = tested on: NL5901 strain expressing α-synuclein in muscle cells; assay type: in vivo, Caenorhabditis elegans; conditions: 1 μg/ml
[3] = tested on: mammalian model with intrahippocampal administration of βA oligomers; conditions: local administration; cited from earlier work
[4] = tested on: C. elegans; test: Longevity (lifespan) assay in C. elegans; assay type: in vivo, Caenorhabditis elegans
Description: Worms were cultivated in UV-killed E. coli.
FIGS. 13c and 13d illustrate that additional biological replicates of longevity curve with sulfated C19 steroid hormones.

[5] = tested on: daf-2(e1370); test: Development / larval arrest at 25° C. (daf-2 interaction); assay type: in vivo, Caenorhabditis elegans; conditions: for L1 arrest: daf-2(e1370) background
Protocol: FIG. 5i illustrates example of sul-2(pv17) larvae, Dauer larval arrest of daf-2(e1370) or L1 arrest of daf-2(e1370); sul-2(pv17) and daf-2(e1370); sul-2(gk187) at 25° C. Animals were grown up to L4 at 16° C., then shifted at 25° C., progeny were scored or imaged after 72 hours. Photographs were taken in a Leica scope.
Photographs were taken in a Leica scope. Arrow heads: Dauers, arrows: L1s.

[6] = tested on: Q40 aggregates (AM141 strain); test: Huntington model: polyglutamine (Q40) aggregates; assay type: in vivo, Caenorhabditis elegans; conditions: Q40 background; 1 μg/ml; 5-day old worms
Description: Strains AM140 and AM141 respectively.
In this model, GFP-labelled dopaminergic neurons die due to α-synuclein toxicity. […] We also tested two different strains of Alzheimer's disease (AD) in worms, where immobility is caused by expression of βA protein in muscle cells.

[7] = tested on: CL2006 strain expressing human β-amyloid in muscle; test: Alzheimer's disease model: paralysis with age of CL2006 strain; assay type: in vivo, Caenorhabditis elegans
Description: FIG. 12g illustrates that expression of human β-amyloid in muscle provokes paralysis with age (CL2006 strain) that is ameliorated by STX64 treatment. Log-rank (Mantel-Cox) test, for sul-2 deletion p=0.0027 and STX treatment p=0.007.

[8] = tested on: wild type mice injected with β-amyloid oligomers in the hippocampus; test: Passive avoidance test, acute AD model (intrahippocampal β-amyloid oligomers); assay type: in vivo
Description: FIGS. 3i and 3j illustrate that the effect of intrahippocampal and oral administration of STX64 in the passive avoidance test in wild type mice injected with β-amyloid oligomers in the hippocampus. The number of mice in each group were >5.
FIG. 3p illustrates effect of oral administration with STX64 in more than 15-month-old APP-PS1 mice, and comparation with APP-PS1 and wild type mice older than 15 months in the passive avoidance test. The number of mice in each group were >5. In histological analysis, * represent significant differences between vehicle- and STX64 administrated APP-PS1 mice. […]
As STX64 ameliorated neurodegeneration in C. elegans models, we tested the effect of this drug on cognitive alterations provoked by intrahippocampal βA oligomers infusion, an acute AD mammalian model (FIG. 3i). […] To evaluate the effect of STX64 oral treatment on amyloid pathology in a chronic AD mice model, we assessed the effect of 3-4 weeks of STX64 oral treatment on amyloid deposition in the […] (the cerebral cortex and the hippocampus) of >15-month-old APP-PS1 mice (FIG. 4k). […]

[9] = tested on: APP-PS1 mice; test: β-amyloid deposition in chronic AD model; assay type: in vivo
Protocol: FIG. 3k illustrates that representative β-amyloid-immunoreactive images assessed in the frontal cortex and the hippocampus of APP-PS1 mice older than 15 months of age after 3-4 weeks of vehicle or STX64 intake (0.005 mg/ml in drink water).
FIGS. 3l-3n illustrate quantification of percentage of β-amyloid area (c), deposition density (d) and average plaque size (e) in the frontal cortex and the hippocampus of >15 months-old APP-PS1 mice after 3-4 weeks of oral administration with STX64 or vehicle. n=4 mice per groups.
FIG. 3o illustrates temporal course of β-amyloid deposition in APP-PS1 mice and the effect of 3-4 weeks STX64 oral treatment on β-amyloid area in the frontal cortex (upper panel) and the hippocampus (lower panel). The number of microphotographs used was more than 3 in all the mice used.
As STX64 ameliorated neurodegeneration in C. elegans models, we tested the effect of this drug on cognitive alterations provoked by intrahippocampal βA oligomers infusion, an acute AD mammalian model (FIG. 3i). […] To evaluate the effect of STX64 oral treatment on amyloid pathology in a chronic AD mice model, we assessed the effect of 3-4 weeks of STX64 oral treatment on amyloid deposition in the […] (the cerebral cortex and the hippocampus) of >15-month-old APP-PS1 mice ([…]). […] We wondered if this histological improvement correlated with amelioration of cognitive behavioral deficit. For that, we compared cognition capacities in APP-PS1 mice older than 15-month-old treated with vehicle or STX64 for 3-4 weeks.

[10] = tested on: APP-PS1 mice; test: Passive avoidance test in chronic AD model; assay type: in vivo; conditions: APP-PS1 mice older than 15 months; 3-4 weeks oral
Description: FIG. 3p illustrates effect of oral administration with STX64 in more than 15-month-old APP-PS1 mice, and comparation with APP-PS1 and wild type mice older than 15 months in the passive avoidance test. The number of mice in each group were >5. In histological analysis, * represent significant differences between vehicle- and STX64 administrated APP-PS1 mice. In behavioral test, * represent significant differences between the short-term and long-term memory sessions (STM and LTM, respectively) and the training session in the same experimental group; and, + represent significant differences between the STM and LTM sessions between each experimental group and β-amyloid group. A symbol, p<0.05, two symbols, p<0.01, and three symbols, p<0.001.
As STX64 ameliorated neurodegeneration in C. elegans models, we tested the effect of this drug on cognitive alterations provoked by intrahippocampal βA oligomers infusion, an acute AD mammalian model (FIG. 3i). […] To evaluate the effect of STX64 oral treatment on amyloid pathology in a chronic AD mice model, we assessed the effect of 3-4 weeks of STX64 oral treatment on amyloid deposition in the […] (the cerebral cortex and the hippocampus) of >15-month-old APP-PS1 mice (FIG. 4k). […] We wondered if this histological improvement correlated with amelioration of cognitive behavioral deficit. […]

[11] = wild type background, hormone 1 μg/ml
[12] = thermodependent paralysis, 1 μg/ml

Compound: C[C@]12CC[C@@H](OS(=O)(=O)O)C[C@@H]1CC[C@@H]1[C@@H]2CC[C@]2(C)C(=O)CC[C@@H]12 [AS, [(3R,5S,8R,9S,10S,13S,14S)-10,13-Dimethyl-17-oxo-1,2,3,4,5,6,7,8,9,11,12,14,15,16-tetradecahydrocyclopenta[a]phenanthren-3-yl] sulfate]
- paralysis with age ([1]; 1 μg/ml): reduce this effect
- paralysis with age ([1]; 5 μg/ml): reduce this effect

Compound: C[C@]12CC[C@H](O)CC1=CC[C@@H]1[C@@H]2CC[C@]2(C)C(=O)CC[C@@H]12 [DHEA]
- mobility with age [2]: showed no effect; also recorded: no effect is observed

Compound: CCCCCCCCCCCCCC(=O)NCCc1ccc(OS(N)(=O)=O)cc1 [DU-14]
- memory loss [3]: could alleviate memory loss

Compound: C[C@]12CC[C@H]3[C@@H](CCC4=CC(=O)CC[C@@]43C)[C@@H]1CC[C@H]2OS(=O)(=O)O [ES, N,N-diethylethanamine; [(8R,9S,10R,13S,14S,17R)-10,13-dimethyl-3-oxo-1,2,6,7,8,9,11,12,14,15,16,17-dodecahydrocyclopenta[a]phenanthren-17-yl] hydrogen sulfate]
- life span ([4]; sul-2(gk187) / sul-2 mutants background, hormone 1 μg/ml): did not further increase longevity in sul-2 mutants backgrounds; also recorded: does not further increase in sul-2(gk187)
- life span ([4]; sul-2(pv17) background, hormone 1 μg/ml): does not increase further in sul-2(pv17)
- life span [4, 11]: increases lifespan in wild type background; also recorded: increased in longevity on a wild type background; also recorded: increases life span in a wild type background
- mobility with age [2]: improves the mobility
- paralysis phenotype ([1]; normal NGM plates, 1 μg/ml): reduced
- paralysis phenotype [1, 12]: ameliorate
- L1 arrest [5]: increase

Compound: NS(=O)(=O)Oc1ccc2c3c(c(=O)oc2c1)CCCCC3 [STX64]
- lifespan, dependence on daf-36 ([4]; daf-36 background, STX64 1 μg/ml): DAF-36 is required for the longevity; also recorded: necessary for the increase of longevity
- life span ([4]; sul-2 (gk187) deletion background, STX64 1 μg/ml, UV-killed E. coli): not in sul-2 (gk187) background; also recorded: does not further increase the longevity of sul-2 deletion mutants
- life span ([4]; wild type animals, STX64 1 μg/ml, UV-killed E. coli): increases lifespan in wild type animals; also recorded: an increase in longevity
- life span ([4]; wild type, non-UV E. coli): increases lifespan of wild type
- mobility with age [2]: significantly improved mobility; also recorded: protective effect
- number of Q40 aggregates [6]: reduced the number of aggregates; also recorded: Q40 aggregates are reduced
- paralysis phenotype [1, 12]: delayed paralysis; also recorded: the paralysis phenotype is ameliorated
- paralysis with age [7]: delayed paralysis; also recorded: ameliorated
- L1 arrest [5]: mainly arrests in L1
- development ([5]; wild type): does not affect development of wild type
- cognitive deficiencies, passive avoidance test ([8]; local (intrahippocampal) administration): reverted the cognitive deficiencies
- cognitive deficiencies, passive avoidance test ([8]; systemic (oral) administration): reverted the cognitive deficiencies
- βA plaque density ([9]; >15-month-old APP-PS1 mice, 3-4 weeks oral, 0.005 mg/ml in drink water, cortex and hippocampus): significant reduction
- βA plaque size ([9]; >15-month-old APP-PS1 mice, 3-4 weeks oral, cortex): significant reduction
- βA immunoreactive area ([9]; >15-month-old APP-PS1 mice, 3-4 weeks oral, cortex and hippocampus): reduced in both tissues
- βA deposition versus normal temporal course ([9]; >15-month-old treated mice compared to un-treated APP-PS1 mice of 10-12 months): reduces βA deposition
- cognitive deficiencies, passive avoidance test [10]: completely reverted cognitive deficiencies

Compound: C[C@]12CC[C@H]3[C@@H](CCC4=CC(=O)CC[C@@]43C)[C@@H]1CC[C@@H]2OS(=O)(=O)O [TS, [(8R,9S,10R,13S,14S,17S)-10,13-dimethyl-3-oxo-1,2,6,7,8,9,11,12,14,15,16,17-dodecahydrocyclopenta[a]phenanthren-17-yl]hydrogen sulfate]
- life span [4, 11]: do not affect; also recorded: does not affect longevity
- mobility with age [2]: improves the mobility
- paralysis phenotype ([1]; normal NGM plates, 1 μg/ml): reduced
- paralysis phenotype [1, 12]: ameliorate
- L1 arrest [5]: increase

Compound: C[C@]12CC[C@H]3[C@@H](CCC4=CC(=O)CC[C@@]43C)[C@@H]1CC[C@@H]2O [testosterone]
- mobility with age [2]: showed no effect; also recorded: no effect is observed

Compound: dehydroepiandrosterone sulfate [DHEAS]
- life span [4, 11]: do not affect; also recorded: does not affect longevity
- mobility with age [2]: improves the mobility
- L1 arrest [5]: increase

Compound: pregnenolone sulfate
- mobility with age [2]: showed no effect; also recorded: no effect is observed
